In article PMC3006138, “Fexinidazole – A New Oral Nitroimidazole Drug Candidate Entering Clinical Development for the Treatment of Sleeping Sickness” (PLoS Neglected Tropical Diseases, 2010):
Like-named read-outs stand apart in the source and are kept apart here.

Experiment: Rat 28-day toxicokinetics
Type: in vivo
Conditions: plasma, po; for half-life: read-out: apparent terminal half-life (converted); for AUC: read-out: AUC within 24 hours post dosing
Protocol: In the rat repeated-dose toxicokinetic study, fexinidazole was administered orally by gavage once a day for 28 consecutive days to ten or fifteen Crl:CD (SD)IGS BR rats/sex/group at doses of 50, 200, or 800 mg/kg/day. A control group received the vehicle alone (5% Tween 80/0.5% methocel). Ten animals/sex/group were sacrificed at the end of the treatment period on day 29 or 30 of study. The remaining 5 animals/sex/group in the control and high-dose groups were sacrificed on day 43 at the end of a 2-weeks observation period. Systemic exposure to fexinidazole and its sulfoxide and sulfone metabolites was evaluated in three additional animals/sex/group. Samples were taken at predose, and 30 min, 1, 2, 4, 8 and 24 h after dosing on days 1, 14, and 28, and in addition at 48 and 72 h after treatment on day 28.
Toxicokinetic Report for the study No. 0504-2007
SD Standard deviation of the mean […]
t1/2,z Terminal half-life tmax Time to peak plasma concentration
ULOQ Upper limit of quantification
The study was conducted according to the study protocol and related amendment.
Fexinidazole was orally given by gavage once a day for 28 days to male and female Sprague Dawley rats according to the following scheme
Fexinidazole was suspended with 5% Tween 80 in 0.5% Methyl cellulose 400 cP.
6.2. Sample Collection and Handling
Blood samples (about 0.25 mL/sampling time) were withdrawn from retro-orbital sinus plexus under isofluorane anesthesia and put in heparinized plastic tubes kept on a ice-water bath, then centrifuged for 10 min at 1200g at +4°C and two aliquots of about 50 μL of plasma were stored in a freezer at -80°C until analysis. Blood was taken from three rats/gender/dose on Days 1 and 14 at pre-dose and 0.5, 1, 2, 4, 8 and 24 hours after dosing, on Day 28 at pre-dose and 1, 2, 4, 8, 24, 48 and 72 hours after dosing. After the administration of the vehicle, the samples were taken from three rats/gender at pre-dose and […]
6.3. Bioanalytical Method
Rat plasma concentrations of Fexinidazole and its sulfoxide (M1) and sulfone (M2) metabolites were determined by a validated LC/MS/MS method. The calibration range for the assay was 5-1000 ng/mL for Fexinidazole and 25-25000 ng/mL for M1 and M2.
Study samples containing analytes concentrations above the upper limit of quantitation were diluted with blank matrix prior to analysis.
6.4. Pharmacokinetic Calculations
Pharmacokinetic evaluation was carried out using non-compartmental approach with the aid […]
Excel spreadsheet (Microsoft Inc., Seattle, USA). […]
In the calculations, the undetectable concentrations between detectable ones were ignored.
After each dose level, Cmax and tmax of Fexinidazole and sulfoxide and sulfone metabolites […]
linear trapezoidal rule up to the last detectable concentration. On Day 28, since the blood […]
24 hours post dosing was calculated and denoted AUC0-24. This AUC was calculated in order to compare AUC values on Day 28 to those on Day 1 and Day 14. On Day 28, in addition, the half-life of the terminal phase, t1/2,z, was determined by linear regression analysis of the natural-log concentration vs. time curve, where t1/2,z = ln(2)/slope of the regression line.
Fexinidazole and metabolites accumulation ratios, based on Cmax (RA,Cmax), AUC0-24 (RA,AUC0-24) and AUC0-t(last) (RA,AUC0-t(last)), were calculated as the ratio between the parameters obtained on Day 14 and Day 28 to the corresponding one at Day 1. […]
pharmacokinetic parameters of each compound sorted by dose, gender and day of dosing. […]
compound are reported in Tables 1 and 2, whilst individual and mean parameters of each […]
Individual and mean (±SD, CV%) plasma
2A1 - 19A1 of Appendix 1. Individual plasma concentrations of Fexinidazole and both metabolites are plot in Figures 1 - 9, whilst the mean concentrations are plot in Figures 10 - 15. Mean normalized Cmax and AUC0-t(last) values of Fexinidazole and metabolites vs. dose are plot in Figures 16 - 21.
In-study bioanalytical validation data are reported in Appendix 2. All analytical batches met […]

[1] = Sprague-Dawley (Crl:CD (SD)IGS BR), 50 mg/kg/day, 50 mg/kg/day po, day 1
[2] = Sprague-Dawley (Crl:CD (SD)IGS BR), 50 mg/kg/day, 50 mg/kg/day po, day 14
[3] = Sprague-Dawley (Crl:CD (SD)IGS BR), 200 mg/kg/day, 200 mg/kg/day po, day 1
[4] = both sexes, Sprague-Dawley (Crl:CD (SD)IGS BR), 200 mg/kg/day, 200 mg/kg/day po, day 14
[5] = both sexes, Sprague-Dawley (Crl:CD (SD)IGS BR), 800 mg/kg/day, 800 mg/kg/day po, day 1
[6] = both sexes, Sprague-Dawley (Crl:CD (SD)IGS BR), 800 mg/kg/day, 800 mg/kg/day po, day 14

## Cn1c([N+](=O)[O-])cnc1COc1ccc(S(C)(=O)=O)cc1 [Fexinidazole sulfone]
Sprague Dawley (Crl:CD (SD)IGS BR), 50 mg/kg/day, Day 28, female
  half-life: 13 h
Sprague Dawley (Crl:CD (SD)IGS BR), 50 mg/kg/day, Day 28, male
  half-life: 6.1 ± 1.2 h
Sprague Dawley (Crl:CD (SD)IGS BR), 200 mg/kg/day, Day 28, female
  half-life: 7.3 h
Sprague Dawley (Crl:CD (SD)IGS BR), 200 mg/kg/day, Day 28, male
  half-life: 7.5 h
Sprague Dawley (Crl:CD (SD)IGS BR), 800 mg/kg/day, Day 28, female (n=2)
  half-life: 11 h
Sprague Dawley (Crl:CD (SD)IGS BR), 800 mg/kg/day, Day 28, male
  half-life: 10 h
[1]
  Cmax: 2920 ± 2260 ng/mL
  Tmax: 7.33 ± 1.63 h
Sprague-Dawley (Crl:CD (SD)IGS BR), 50 mg/kg/day, 50 mg/kg/day po, day 1, read-out: AUC0-t(last)
  AUC(0-t): 36.1 ± 28.6 µg·h/mL
[2]
  Cmax: 6380 ± 2300 ng/mL
  Tmax: 6 ± 2.19 h
Sprague-Dawley (Crl:CD (SD)IGS BR), 50 mg/kg/day, 50 mg/kg/day po, day 14, read-out: AUC0-t(last)
  AUC(0-t): 89.6 ± 34.1 µg·h/mL
Sprague-Dawley (Crl:CD (SD)IGS BR), 50 mg/kg/day, Day 28, female
  AUC: 175 µg·h/mL
Sprague-Dawley (Crl:CD (SD)IGS BR), 50 mg/kg/day, Day 28, male
  AUC: 106 µg·h/mL
[3]
  Cmax: 9290 ± 1750 ng/mL
  Tmax: 8 h
Sprague-Dawley (Crl:CD (SD)IGS BR), 200 mg/kg/day, Day 28, female
  AUC: 341 µg·h/mL
Sprague-Dawley (Crl:CD (SD)IGS BR), 200 mg/kg/day, Day 28, male
  AUC: 341 µg·h/mL
Sprague-Dawley (Crl:CD (SD)IGS BR), 800 mg/kg/day, Day 28, female (n=2)
  AUC: 572 µg·h/mL
Sprague-Dawley (Crl:CD (SD)IGS BR), 800 mg/kg/day, Day 28, male
  AUC: 459 µg·h/mL
Both sexes, Sprague-Dawley (Crl:CD (SD)IGS BR), 200 mg/kg/day, 200 mg/kg/day po, day 1, read-out: AUC0-t(last)
  AUC(0-t): 126 ± 17.5 µg·h/mL
[4]
  Cmax: 20200 ± 2420 ng/mL
  Tmax: 7.33 ± 1.63 h
Both sexes, Sprague-Dawley (Crl:CD (SD)IGS BR), 200 mg/kg/day, 200 mg/kg/day po, day 14, read-out: AUC0-t(last)
  AUC(0-t): 287 ± 36.5 µg·h/mL
[5]
  Cmax: 42600 ± 13100 ng/mL
  Tmax: 10.7 ± 6.53 h
Both sexes, Sprague-Dawley (Crl:CD (SD)IGS BR), 800 mg/kg/day, 800 mg/kg/day po, day 1, read-out: AUC0-t(last)
  AUC(0-t): 574 ± 256 µg·h/mL
[6]
  Cmax: 40500 ± 13000 ng/mL
  Tmax: 6.67 ± 2.07 h
Both sexes, Sprague-Dawley (Crl:CD (SD)IGS BR), 800 mg/kg/day, 800 mg/kg/day po, day 14, read-out: AUC0-t(last)
  AUC(0-t): 543 ± 252 µg·h/mL
female, Sprague Dawley (Crl:CD (SD)IGS BR), 50 mg/kg, Day 1, female
  Cmax: 4420 ± 2410 ng/mL
female, Sprague Dawley (Crl:CD (SD)IGS BR), 50 mg/kg, Day 1, female, read-out: AUC0-t(last)
  AUC(0-t): 55.8 ± 28.1 µg·h/mL
female, Sprague Dawley (Crl:CD (SD)IGS BR), 50 mg/kg/day, Day 28, female
  Cmax: 10700 ng/mL
female, Sprague Dawley (Crl:CD (SD)IGS BR), 200 mg/kg, Day 1, female
  Cmax: 10000 ± 815 ng/mL
female, Sprague Dawley (Crl:CD (SD)IGS BR), 200 mg/kg, Day 1, female, read-out: AUC0-t(last)
  AUC(0-t): 134 ± 10.8 µg·h/mL
female, Sprague Dawley (Crl:CD (SD)IGS BR), 200 mg/kg/day, Day 28, female
  Cmax: 21400 ng/mL
female, Sprague Dawley (Crl:CD (SD)IGS BR), 800 mg/kg, Day 1, female
  Cmax: 44800 ± 20100 ng/mL
female, Sprague Dawley (Crl:CD (SD)IGS BR), 800 mg/kg, Day 1, female, read-out: AUC0-t(last)
  AUC(0-t): 683 ± 241 µg·h/mL
female, Sprague Dawley (Crl:CD (SD)IGS BR), 800 mg/kg/day, Day 28, female (n=2)
  Cmax: 41900 ng/mL
female, Sprague-Dawley (Crl:CD (SD)IGS BR), 50 mg/kg/day, Day 28, female, read-out: AUC0-t(last)
  AUC(0-t): 197 µg·h/mL
female, Sprague-Dawley (Crl:CD (SD)IGS BR), 200 mg/kg/day, Day 28, female, read-out: AUC0-t(last)
  AUC(0-t): 448 µg·h/mL
female, Sprague-Dawley (Crl:CD (SD)IGS BR), 800 mg/kg/day, Day 28, female (n=2), read-out: AUC0-t(last)
  AUC(0-t): 738 µg·h/mL
male, Sprague Dawley (Crl:CD (SD)IGS BR), 50 mg/kg, Day 1, male
  Cmax: 1420 ± 393 ng/mL
male, Sprague Dawley (Crl:CD (SD)IGS BR), 50 mg/kg, Day 1, male, read-out: AUC0-t(last)
  AUC(0-t): 16.5 ± 9.76 µg·h/mL
male, Sprague Dawley (Crl:CD (SD)IGS BR), 50 mg/kg/day, Day 28, male
  Cmax: 7750 ng/mL
male, Sprague Dawley (Crl:CD (SD)IGS BR), 200 mg/kg, Day 1, male
  Cmax: 8550 ± 2310 ng/mL
male, Sprague Dawley (Crl:CD (SD)IGS BR), 200 mg/kg, Day 1, male, read-out: AUC0-t(last)
  AUC(0-t): 119 ± 21.9 µg·h/mL
male, Sprague Dawley (Crl:CD (SD)IGS BR), 200 mg/kg/day, Day 28, male
  Cmax: 24200 ng/mL
male, Sprague Dawley (Crl:CD (SD)IGS BR), 800 mg/kg, Day 1, male
  Cmax: 40300 ± 1560 ng/mL
male, Sprague Dawley (Crl:CD (SD)IGS BR), 800 mg/kg, Day 1, male, read-out: AUC0-t(last)
  AUC(0-t): 465 ± 264 µg·h/mL
male, Sprague Dawley (Crl:CD (SD)IGS BR), 800 mg/kg/day, Day 28, male
  Cmax: 33000 ng/mL
male, Sprague-Dawley (Crl:CD (SD)IGS BR), 50 mg/kg/day, Day 28, male, read-out: AUC0-t(last)
  AUC(0-t): 113 µg·h/mL
male, Sprague-Dawley (Crl:CD (SD)IGS BR), 200 mg/kg/day, Day 28, male, read-out: AUC0-t(last)
  AUC(0-t): 387 µg·h/mL
male, Sprague-Dawley (Crl:CD (SD)IGS BR), 800 mg/kg/day, Day 28, male, read-out: AUC0-t(last)
  AUC(0-t): 509 µg·h/mL
